Columns and labels:
MCL1 mRNA = MCL1 mRNA by reverse transcriptase-PCR in HCC-1806 cells; assay type: cell-based; conditions: 8 h
Method: Figure 1 MCL-1 levels are elevated in cancer cells after treatment with MCL-1-binding small molecules. (a) H929 multiple myeloma cells were treated for 4 h with 10 μM A-1210477 before immunopreciptating MCL-1. […] A control H929 lysate was run in lane 1, and an immunoprecipitation with a non-specific antibody (Ig) was run in lane 2. The positions of molecular weight markers (specified in kiloDaltons) are indicated on the left. (b) HCC-1806 breast cancer cells were incubated with increasing concentrations of A-1210477 (0.1, 0.5, 1, 5, 10, 15, or 20 μM) or bortezomib (2, 10, or 50 nM) for 8 h before assessing MCL-1 and NOXA levels by immunoblotting. β-Actin was probed as a protein loading control. The lower graph depicts reverse transcriptase-PCR quantification of MCL1 mRNA from HCC-1806 cells treated for 8 h with similar concentrations of A-1210477. (c) HCC-1806 cells were incubated with increasing concentrations (0.1, 0.5, 1, 5, 10, and 20 μM) of A-954248, A-962653, or A-1248767 for 24 h before assessing MCL-1 and BCL-XL levels by immunoblotting. β-Actin was probed as a protein loading control

[1] = test system: MCL-1(3B)–BIMS(2A)ΔC complexes; test: Live cell redistribution assay, eGFP-MCL-1(3B) and mCherry-BIMS(2A)ΔC, T-REx-293 cells; assay type: cell-based
Description: To further rule out potential artifacts associated with lysate detergents that can influence interactions between BCL-2 family proteins,[47] we employed a recently described real-time imaging method to assess the effects on BCL-2 family complexes in live cells.[48] Briefly, interacting pairs of BCL-2 family proteins are expressed as fluorescent fusion proteins at stoichiometric levels from a bicistronic expression module integrated into a single site of the genome in T-REx-293 cells. Under basal conditions, both proteins localize primarily to the mitochondria, where the anti-apoptotic proteins (enhanced green fluorescent protein (eGFP)-BCL-2, eGFP-BCL-XL, or eGFP-MCL-1(3B)) sequester their pro-apoptotic counterparts (mCherry-BAD or mCherry-BIMS(2A)ΔC, the latter being a specific binder of MCL-1[48], [49]). Disruption of these complexes can be tracked by measuring the amount of mCherry-labeled BH3-only protein localized specifically to the mitochondria. […]
Figure 3 A-1210477 inhibits MCL-1-BIM complexes in live cells. […] The decrease in amount of mCherry-BH3 protein localized to the mitochondria was quantified as a function of time as described in the Materials and Methods, normalized to DMSO control, and fitted to a single exponential decay. Each data point represents the mean change in intensity calculated from 10 fields of view, with error bars indicating the S.E.M. (b) T-REx-293 cells stably expressing eGFP-MCL-1(3B) and mCherry-BIMS(2A)ΔC were treated with 50 μM ABT-737 or increasing concentrations (1–25 μM) A-1210477 for 100 min. The decrease in amount of mCherry-BIMS(2A)ΔC localized to the mitochondria was quantified as in panel (a). (c) Representative fluorescence microscopic images of T-REx-293 cells stably expressing eGFP-BCL-2 family and interacting mCherry-BH3-only proteins before and after 300 min of treatment with 10 μM A-1210477 or (d) ABT-737. […]
Experiments were carried out as detailed previously.[48] […] Therefore, the entire cell was identified with a single intensity threshold applied to the eGFP fluorescence, excluding areas identified as mitochondria. […]

H23 cells = test: Cell viability, H23 cells; assay type: cell-based, human
Method: Figure 5 A-1210477 kills MCL-1-dependent NSCLC cancer cell lines. NSCLC cell lines (a) H2110 or (c) H23 were transfected with a construct expressing the MCL1 CDS tagged with a Flag epitope or empty control vector. These cells were subsequently transfected with siRNAs targeting the MCL1 CDS, the MCL1 3′ UTRa or UTRb, or a scrambled control sequence. Cell viability was assessed 72 h later with MCL-1 and Flag immunoblots performed in parallel. (b) H2110 or (d) H23 cells were treated with increasing concentrations of A-1210477 for 72 h before assessing cell viability.
Adherent cell lines were seeded at 50 000 cells per well in 96-well plates and treated for 48 h with compounds diluted in half-log steps starting at 30 μM and ending at 0.001 μM. Multiple myeloma cell lines were seeded at 15 000–20 000 cells per well and treated similarly. Effects on proliferation and viability were determined using CellTiter-Glo reagent from Promega (Madison, WI, USA) according to the manufacturer's instructions. IC50 values were determined by non-linear regression analysis of the concentration response data.

## Cc1nn(C)c(COc2ccc(N3CCN(S(=O)(=O)N(C)C)CC3)cc2)c1-c1cccc2c(CCCOc3cccc4ccccc34)c(C(=O)O)n(CCN3CCOCC3)c12 [A-1210477]
MCL1 mRNA
  effect on MCL1 mRNA: No corresponding increase in MCL1 mRNA
[1]; T-REx-293 cells expressing MCL-1(3B)
  redistribution of mCherry-BIMS(2A)ΔC from mitochondria: induced dose-dependent redistribution of BIMS(2A)ΔC to the cytosol
[1]; T-REx-293 cells, 100 min
  lowest concentration at which BIMS(2A)ΔC redistribution could be observed: 1 µM
H23 cells; H23
  IC50: < 10 µM
H23 cells; H23, 72 h
  EC50: 7.2 µM

Source: PMC4669759 (Cell Death & Disease, 2015)
